Consider one molecule from EP0476408A1, “Chemical conjugation of morpholino anthracyclines to antibodies” (RESEARCH CORPORATION TECHNOLOGIES, INC., priority 1990, dated 1992).

The data set has as its system A-375 cells. Briefly: Cytotoxicity of conjugate versus uncoupled drug, serial dilutions. The class given is cell-based. The settings on record: drug alone versus conjugate, Figure 6.

Turning to `COc1cccc2c1C(=O)c1c(O)c3c(c(O)c1C2=O)C[C@@](O)(C(=O)CO)C[C@@H]3O[C@H]1C[C@H](N2CCOCC2)[C@H](O)[C@H](C)O1` [MRA, morpholino doxorubicin], the cytotoxicity result was “Identical cytoxicity”.
